Where two headings read alike, the source gives them in different places.
How the values were obtained:
[1] = molecular target: T1, West Nile Virus (WNV) NS2B-NS3 protease (West Nile virus, UniProt Q9Q6P4); test: WNV protease inhibition assay; type: biochemical; settings: Table 4; letter codes for IC50
T1 construct: NS2B1423-1470); purchased R&D 2907-SE-020
Description: WNV protease inhibition assay

ZIKV replicon = test: ZIKV replication inhibition assay (NanoLuc replicon in Vero cells); settings: Zika virus, Vero, 72 h
[2] = read-out: ZIKA Cell_Nanoluc, Vero cells with stable ZIKV replicon, 72 h, Nano-Glo readout

T1 sequence (Q9Q6P4 1423-1470): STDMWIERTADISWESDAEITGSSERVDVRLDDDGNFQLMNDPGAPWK
T1 sequence (Q9Q6P4 1506-1689): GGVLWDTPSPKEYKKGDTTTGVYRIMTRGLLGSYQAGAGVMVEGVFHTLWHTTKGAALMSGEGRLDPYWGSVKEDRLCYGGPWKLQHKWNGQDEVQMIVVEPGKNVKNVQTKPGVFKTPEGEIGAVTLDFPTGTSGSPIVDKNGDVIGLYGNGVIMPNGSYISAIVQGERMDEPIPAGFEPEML

Compound | IC50 [1] [nM] | EC50 (ZIKV replicon; [2]) [nM] | EC50 (ZIKV replicon; read-out: ZIKA Cell_Nanoluc) [nM]
Cc1ccccc1CC(=O)Nc1cc(NC(=O)[N-]c2c[n+]([C@H]3CCC[C@@H](CN(C)C)C3)no2)cc(C(F)(F)F)c1 [Example 213, (3-((1S,3R)-3-((Dimethylamino)methyl)-cyclohexyl)-1,2,3-oxadiazol-3-ium-5-yl)((3-(2-(o-tolyl)acetamido)-5-(trifluoromethyl)phenyl)carbamoyl)amide] | 100 to 1000 | 1000 to 20000 | –
Cc1ccccc1CC(=O)Nc1cc(NC(=O)[N-]c2c[n+]([C@@H]3CCC[C@H](O)C3)no2)cc(C(F)(F)F)c1 [Example 214, (3-((1R,3S)-3-Hydroxycyclohexyl)-1,2,3-oxadiazol-3-ium-5-yl)((3-(2-(o-tolyl)acetamido)-5-(trifluoromethyl)phenyl)carbamoyl)amide] | 100 to 1000 | 1000 to 20000 | –
Cc1ccccc1CC(=O)Nc1cc(NC(=O)[N-]c2c[n+]([C@@H]3CCC[C@@H](O)C3)no2)cc(C(F)(F)F)c1 [Example 215, (3-((1R,3R)-3-Hydroxycyclohexyl)-1,2,3-oxadiazol-3-ium-5-yl)((3-(2-(o-tolyl)acetamido)-5-(trifluoromethyl)phenyl)carbamoyl)amide] | < 100 | < 100 | –
Cc1ncnc(C)c1C1=CCC(C[n+]2cc([N-]C(=O)Nc3ccnc(C(F)(F)F)c3)on2)CC1 (centres unmarked) [Example 216, (3-((4-(4,6-Dimethylpyrimidin-5-yl)cyclohex-3-en-1-yl)methyl)-1,2,3-oxadiazol-3-ium-5-yl)((2-(trifluoromethyl)pyridin-4-yl)carbamoyl)amide] | 100 to 1000 | 1000 to 20000 | –
Cc1ccccc1CC(=O)Nc1cc(NC(=O)[N-]c2c[n+](C[C@H]3CCCC[C@H]3O)no2)cc(C(F)(F)F)c1 [Example 217, (3-(((1R,2R)-2Hydroxycyclohexyl)methyl)-1,2,3-oxadiazol-3-ium-5-yl)((3-(2-(o-tolyl)acetamido)-5-(trifluoromethyl)phenyl)-carbamoyl)amide] | < 100 | < 100 | –
Cc1ccccc1CC(=O)Nc1cc(NC(=O)[N-]c2c[n+](C[C@@H]3CCCC[C@H]3O)no2)cc(C(F)(F)F)c1 [Example 218, (3-(((1S,2R)-2-Hydroxycyclohexyl)methyl)-1,2,3-oxadiazol-3-ium-5-yl)((3-(2-(o-tolyl)acetamido)-5-(trifluoromethyl)phenyl)-carbamoyl)amide] | 100 to 1000 | 100 to 1000 | –
O=C([N-]c1c[n+]([C@H]2CCC[C@H](c3cncnc3)C2)no1)Nc1ccnc(C(F)(F)F)c1 [Example 219, (3-((1S,3S)-3-(Pyrimidin-5-yl)cyclohexyl)-1,2,3-oxadiazol-3-ium-5-yl)((2-(trifluoromethyl)pyridin-4-yl)carbamoyl)amide] | 100 to 1000 | 1000 to 20000 | –
O=C([N-]c1c[n+]([C@H]2CCC[C@@H](c3cncnc3)C2)no1)Nc1ccnc(C(F)(F)F)c1 [Example 220, (3-((1S,3R)-3-(Pyrimidin-5-yl)cyclohexyl)-1,2,3-oxadiazol-3-ium-5-yl)((2-(trifluoromethyl)-pyridin-4-yl)carbamoyl)amide] | 100 to 1000 | 100 to 1000 | –
Cc1ccccc1CC(=O)Nc1cc(NC(=O)[N-]c2c[n+]([C@H]3CCC[C@H](c4cncnc4)C3)no2)cc(C(F)(F)F)c1 [Example 221, (3-((1S,3S)-3-(Pyrimidin-5-yl)cyclohexyl)-1,2,3-oxadiazol-3-ium-5-yl)((3-(2-(o-tolyl)acetamido)-5-(trifluoromethyl)phenyl)carbamoyl)amide] | 100 to 1000 | 1000 to 20000 | –
Cc1ccccc1CC(=O)Nc1cc(NC(=O)[N-]c2c[n+]([C@H]3CCC[C@@H](c4cncnc4)C3)no2)cc(C(F)(F)F)c1 [Example 222, (3-((1S,3R)-3-(Pyrimidin-5-yl)cyclohexyl)-1,2,3-oxadiazol-3-ium-5-yl)((3-(2-(o-tolyl)acetamido)-5-(trifluoromethyl)phenyl)-carbamoyl)amide] | < 100 | 100 to 1000 | –
COC(=O)[C@H]1CCC[C@@H]([n+]2cc([N-]C(=O)Nc3cc(NC(=O)Cc4ccccc4C)cc(C(F)(F)F)c3)on2)C1 [Example 223, (3-((1R,3S)-3-(Methoxycarbonyl)cyclohexyl)-1,2,3-oxadiazol-3-ium-5-yl)((3-(2-(o-tolyl)acetamido)-5-(trifluoromethyl)phenyl)-carbamoyl)amide] | < 100 | < 100 | –
COC(=O)[C@@H]1CCC[C@@H]([n+]2cc([N-]C(=O)Nc3cc(NC(=O)Cc4ccccc4C)cc(C(F)(F)F)c3)on2)C1 [Example 224, (3-((1R,3R)-3-(Methoxycarbonyl)cyclohexyl)-1,2,3-oxadiazol-3-ium-5-yl)((3-(2-(o-tolyl)-acetamido)-5-(trifluoromethyl)phenyl)-carbamoyl)amide] | < 100 | < 100 | –
Cc1ncncc1-c1ccc(C[n+]2cc([N-]C(=O)Nc3ccnc(C(F)(F)F)c3)on2)cc1 [Example 225, (3-(4-(4-Methylpyrimidin-5-yl)benzyl)-1,2,3-oxadiazol-3-ium-5-yl)((2-(trifluoromethyl)pyridin-4-yl)carbamoyl)amide] | 100 to 1000 | 100 to 1000 | –
Cc1ncnc(C)c1-c1ccc(C[n+]2cc([N-]C(=O)Nc3ccnc(C(C)(C)C)c3)on2)cc1 [Example 226, ((2-(tert-Butyl)pyridin-4-yl)carbamoyl)(3-(4-(4,6-dimethylpyrimidin-5-yl)benzyl)-1,2,3-oxadiazol-3-ium-5-yl)amide] | < 100 | 1000 to 20000 | –
COC(=O)[C@H]1CC[C@H]([n+]2cc([N-]C(=O)Nc3cc(NC(=O)Cc4ccccc4C)cc(C(F)(F)F)c3)on2)CC1 [Example 227, (3-((1R,4R)-4-(Methoxycarbonyl)cyclohexyl)-1,2,3-oxadiazol-3-ium-5-yl)((3-(2-(o-tolyl)-acetamido)-5-(trifluoromethyl)phenyl)carbamoyl) amide] | < 100 | – | 1000 to 20000
Cc1ccccc1CC(=O)Nc1cc(NC(=O)[N-]c2c[n+]([C@H]3CC[C@H](CO)CC3)no2)cc(C(F)(F)F)c1 [Example 228, (3-((1R,4R)-4-(Hydroxymethyl)cyclohexyl)-1,2,3-oxadiazol-3-ium-5-yl)((3-(2-(o-tolyl)acetamido)-5-(trifluoromethyl)phenyl)carbamoyl)amide] | 100 to 1000 | – | 100 to 1000
Cc1ccccc1CC(=O)Nc1cc(NC(=O)[N-]c2c[n+]([C@H]3CC[C@H](C(=O)O)CC3)no2)cc(C(F)(F)F)c1 [Example 229, (3-((1R,4R)-4-Carboxycyclohexyl)-1,2,3-oxadiazol-3-ium-5-yl)((3-(2-(o-tolyl)acetamido)-5-(trifluoromethyl)phenyl)carbamoyl)amide] | 100 to 1000 | – | 1000 to 20000
Cc1ccccc1CC(=O)Nc1cc(NC(=O)[N-]c2c[n+]([C@@H]3CCCC(CO)C3)no2)cc(C(F)(F)F)c1 (stereo partly drawn) [Example 230, (3-((1R)-3-(Hydroxymethyl)cyclohexyl)-1,2,3-oxadiazol-3-ium-5-yl)((3-(2-(o-tolyl)acetamido)-5-(trifluoromethyl)phenyl)carbamoyl)amide] | < 100 | 1000 to 20000 | –
CNC(=O)[C@@H]1CCC[C@@H]([n+]2cc([N-]C(=O)Nc3cc(NC(=O)Cc4ccccc4C)cc(C(F)(F)F)c3)on2)C1 [Example 231, (3-((1R,3R)-3-(Methylcarbamoyl)cyclohexyl)-1,2,3-oxadiazol-3-ium-5-yl)((3-(2-(o-tolyl)acetamido)-5-(trifluoromethyl)phenyl)-carbamoyl)amide] | < 100 | 1000 to 20000 | –
